# Data as given in ChEMBL document CHEMBL5380773, “Novel Feleucin-K3-Derived Peptides Modified with Sulfono-γ-AA Building Blocks Targeting Pseudomonas aeruginosa and Methicillin-Resistant Staphylococcus aureus Infections” (J Med Chem, 2023).
# Numbered stars: 1 amine (or outer) side, 2 acyl side, 3 side chain; on linkers, the order of the positions; unused ones are H or OH. Square brackets hold non-standard residues; d marks the D form. Peptide text beside a SMILES is read from it. * marks the point of attachment. X21 = CC(C)c1cc(C(C)C)c(S(=O)(=O)N(CC(N)=O)C[C@H](Cc2ccccc2)N*)c(C(C)C)c1; X14 = CC(C)C[C@@H](CN(CC(N)=O)S(=O)(=O)c1c(C(C)C)cc(C(C)C)cc1C(C)C)N*; X12 = NC(=O)CN(C[C@H](Cc1ccccc1)N*)S(=O)(=O)c1ccc([N+](=O)[O-])cc1; X11 = CC(C)C[C@@H](CN(CC(N)=O)S(=O)(=O)c1ccc([N+](=O)[O-])cc1)N*; X9 = NC(=O)CN(C[C@H](Cc1ccccc1)N*)S(=O)(=O)c1ccccc1[N+](=O)[O-]; X17 = CC(C)C[C@@H](CN(CC(N)=O)S(=O)(=O)c1ccccc1[N+](=O)[O-])N*; X13 = NC(=O)CN(C[C@H](Cc1ccccc1)N*)S(=O)(=O)c1ccc(Br)cc1; X18 = NC(=O)CN(C[C@H](Cc1ccccc1)N*)S(=O)(=O)c1ccc(Cl)cc1; X19 = COc1ccc(S(=O)(=O)N(CC(N)=O)C[C@H](Cc2ccccc2)N*)cc1; X15 = NC(=O)CN(C[C@H](Cc1ccccc1)N*)S(=O)(=O)c1ccc(I)cc1; X23 = NC(=O)CN(C[C@H](Cc1ccccc1)N*)S(=O)(=O)c1ccc(F)cc1; X24 = Cc1ccc(S(=O)(=O)N(CC(N)=O)C[C@H](Cc2ccccc2)N*)cc1; X7 = NC(=O)CN(C[C@H](Cc1ccccc1)N*)S(=O)(=O)c1cccc(Cl)c1; X16 = CC(C)C[C@@H](CN(CC(N)=O)S(=O)(=O)c1ccc(Cl)cc1)N*; X25 = CC(C)C[C@@H](CN(CC(N)=O)S(=O)(=O)c1cccc(Cl)c1)N*; X22 = CC(C)C[C@@H](CN(CC(N)=O)S(=O)(=O)c1ccc(F)cc1)N*; X27 = Cc1ccc(S(=O)(=O)N(CC(N)=O)C[C@H](CC(C)C)N*)cc1; X6 = COc1ccc(S(=O)(=O)N(CC(N)=O)C[C@H](CC(C)C)N*)cc1; X8 = CC(C)C[C@@H](CN(CC(N)=O)S(=O)(=O)c1ccc(I)cc1)N*; X5 = CC(C)c1cc(C(C)C)c(S(=O)(=O)*)c(C(C)C)c1; X3 = N[C@@H](Cc1ccccc1)CN(CC(=O)[*:2])[*:1]; X2 = CC(C)C[C@H](N)CN(CC(=O)[*:2])[*:1]; X10 = O=[N+]([O-])c1ccc(S(=O)(=O)*)cc1; Brosyl = O=S(=O)(c1ccc(Br)cc1)*; X20 = O=S(=O)(c1ccc(Cl)cc1)*; Tos = Cc1ccc(S(=O)(=O)*)cc1; X4 = O=S(=O)(c1cccc(Cl)c1)*; X1 = O=S(=O)(c1ccc(I)cc1)*
# System: Erythrocyte
# Assay: Hemolytic activity against mouse red blood cells incubated for 1 hr
# Assay type: toxicity, cell-based
row,SMILES,MHC [µg/mL]
1,CC(C)C[C@H](NC(=O)[C@H](CC(C)C)NC(=O)[C@H](CCCCN)NC(=O)[C@H](CCCCN)NC(=O)[C@H](CC(C)C)NC(=O)[C@H](CC(C)C)NC(=O)[C@H](CCCCN)NC(=O)CN(C[C@@H](N)Cc1ccccc1)S(=O)(=O)c1ccc(Br)cc1)C(N)=O (Brosyl-[X3]KLLKKLL-NH2),64
2,COc1ccc(S(=O)(=O)N(CC(N)=O)C[C@H](CC(C)C)NC(=O)[C@H](CCCCN)NC(=O)[C@H](CCCCN)NC(=O)[C@H](CC(C)C)NC(=O)[C@H](CC(C)C)NC(=O)[C@H](CCCCN)NC(=O)[C@H](CC(C)C)NC(=O)[C@@H](N)Cc2ccccc2)cc1 (H-FLKLLKK-X6),256
3,CC(C)C[C@H](NC(=O)[C@H](CC(C)C)NC(=O)[C@H](CCCCN)NC(=O)[C@H](CC(C)C)NC(=O)[C@@H](N)Cc1ccccc1)C(=O)N[C@@H](CCCCN)C(=O)N[C@@H](CCCCN)C(=O)N[C@@H](Cc1ccccc1)CN(CC(N)=O)S(=O)(=O)c1cccc(Cl)c1 (H-FLKLLKK-X7),256
4,CC(C)C[C@@H](CN(CC(N)=O)S(=O)(=O)c1ccc(I)cc1)NC(=O)[C@H](CCCCN)NC(=O)[C@H](CCCCN)NC(=O)[C@H](CC(C)C)NC(=O)[C@H](CC(C)C)NC(=O)[C@H](CCCCN)NC(=O)[C@H](CC(C)C)NC(=O)[C@@H](N)Cc1ccccc1 (H-FLKLLKK-X8),256
5,CC(C)C[C@H](NC(=O)[C@H](CC(C)C)NC(=O)[C@H](CCCCN)NC(=O)[C@H](CC(C)C)NC(=O)[C@@H](N)Cc1ccccc1)C(=O)N[C@@H](CCCCN)C(=O)N[C@@H](CCCCN)C(=O)N[C@@H](Cc1ccccc1)CN(CC(N)=O)S(=O)(=O)c1ccccc1[N+](=O)[O-] (H-FLKLLKK-X9),256
6,CC(C)C[C@@H](CN(CC(N)=O)S(=O)(=O)c1ccc([N+](=O)[O-])cc1)NC(=O)[C@H](CCCCN)NC(=O)[C@H](CCCCN)NC(=O)[C@H](CC(C)C)NC(=O)[C@H](CC(C)C)NC(=O)[C@H](CCCCN)NC(=O)[C@H](CC(C)C)NC(=O)[C@@H](N)Cc1ccccc1 (H-FLKLLKK-X11),256
7,CC(C)C[C@H](NC(=O)[C@H](CC(C)C)NC(=O)[C@H](CCCCN)NC(=O)[C@H](CC(C)C)NC(=O)[C@@H](N)Cc1ccccc1)C(=O)N[C@@H](CCCCN)C(=O)N[C@@H](CCCCN)C(=O)N[C@@H](Cc1ccccc1)CN(CC(N)=O)S(=O)(=O)c1ccc([N+](=O)[O-])cc1 (H-FLKLLKK-X12),256
8,CC(C)C[C@H](NC(=O)[C@H](CC(C)C)NC(=O)[C@H](CCCCN)NC(=O)[C@H](CC(C)C)NC(=O)[C@@H](N)Cc1ccccc1)C(=O)N[C@@H](CCCCN)C(=O)N[C@@H](CCCCN)C(=O)N[C@@H](Cc1ccccc1)CN(CC(N)=O)S(=O)(=O)c1ccc(Br)cc1 (H-FLKLLKK-X13),256
9,CC(C)C[C@@H](CN(CC(N)=O)S(=O)(=O)c1c(C(C)C)cc(C(C)C)cc1C(C)C)NC(=O)[C@H](CCCCN)NC(=O)[C@H](CCCCN)NC(=O)[C@H](CC(C)C)NC(=O)[C@H](CC(C)C)NC(=O)[C@H](CCCCN)NC(=O)[C@H](CC(C)C)NC(=O)[C@@H](N)Cc1ccccc1 (H-FLKLLKK-X14),32
10,CC(C)C[C@H](NC(=O)[C@H](CC(C)C)NC(=O)[C@H](CCCCN)NC(=O)[C@H](CC(C)C)NC(=O)[C@@H](N)Cc1ccccc1)C(=O)N[C@@H](CCCCN)C(=O)N[C@@H](CCCCN)C(=O)N[C@@H](Cc1ccccc1)CN(CC(N)=O)S(=O)(=O)c1ccc(I)cc1 (H-FLKLLKK-X15),128
11,CC(C)C[C@@H](CN(CC(N)=O)S(=O)(=O)c1ccc(Cl)cc1)NC(=O)[C@H](CCCCN)NC(=O)[C@H](CCCCN)NC(=O)[C@H](CC(C)C)NC(=O)[C@H](CC(C)C)NC(=O)[C@H](CCCCN)NC(=O)[C@H](CC(C)C)NC(=O)[C@@H](N)Cc1ccccc1 (H-FLKLLKK-X16),256
12,CC(C)C[C@@H](CN(CC(N)=O)S(=O)(=O)c1ccccc1[N+](=O)[O-])NC(=O)[C@H](CCCCN)NC(=O)[C@H](CCCCN)NC(=O)[C@H](CC(C)C)NC(=O)[C@H](CC(C)C)NC(=O)[C@H](CCCCN)NC(=O)[C@H](CC(C)C)NC(=O)[C@@H](N)Cc1ccccc1 (H-FLKLLKK-X17),256
13,CC(C)C[C@H](NC(=O)[C@H](CC(C)C)NC(=O)[C@H](CCCCN)NC(=O)[C@H](CC(C)C)NC(=O)[C@@H](N)Cc1ccccc1)C(=O)N[C@@H](CCCCN)C(=O)N[C@@H](CCCCN)C(=O)N[C@@H](Cc1ccccc1)CN(CC(N)=O)S(=O)(=O)c1ccc(Cl)cc1 (H-FLKLLKK-X18),128
14,COc1ccc(S(=O)(=O)N(CC(N)=O)C[C@H](Cc2ccccc2)NC(=O)[C@H](CCCCN)NC(=O)[C@H](CCCCN)NC(=O)[C@H](CC(C)C)NC(=O)[C@H](CC(C)C)NC(=O)[C@H](CCCCN)NC(=O)[C@H](CC(C)C)NC(=O)[C@@H](N)Cc2ccccc2)cc1 (H-FLKLLKK-X19),256
15,CC(C)C[C@H](NC(=O)[C@H](CC(C)C)NC(=O)[C@H](CCCCN)NC(=O)[C@H](CC(C)C)NC(=O)[C@@H](N)Cc1ccccc1)C(=O)N[C@@H](CCCCN)C(=O)N[C@@H](CCCCN)C(=O)N[C@@H](Cc1ccccc1)CN(CC(N)=O)S(=O)(=O)c1c(C(C)C)cc(C(C)C)cc1C(C)C (H-FLKLLKK-X21),32
16,CC(C)C[C@@H](CN(CC(N)=O)S(=O)(=O)c1ccc(F)cc1)NC(=O)[C@H](CCCCN)NC(=O)[C@H](CCCCN)NC(=O)[C@H](CC(C)C)NC(=O)[C@H](CC(C)C)NC(=O)[C@H](CCCCN)NC(=O)[C@H](CC(C)C)NC(=O)[C@@H](N)Cc1ccccc1 (H-FLKLLKK-X22),256
17,CC(C)C[C@H](NC(=O)[C@H](CC(C)C)NC(=O)[C@H](CCCCN)NC(=O)[C@H](CC(C)C)NC(=O)[C@@H](N)Cc1ccccc1)C(=O)N[C@@H](CCCCN)C(=O)N[C@@H](CCCCN)C(=O)N[C@@H](Cc1ccccc1)CN(CC(N)=O)S(=O)(=O)c1ccc(F)cc1 (H-FLKLLKK-X23),256
18,Cc1ccc(S(=O)(=O)N(CC(N)=O)C[C@H](Cc2ccccc2)NC(=O)[C@H](CCCCN)NC(=O)[C@H](CCCCN)NC(=O)[C@H](CC(C)C)NC(=O)[C@H](CC(C)C)NC(=O)[C@H](CCCCN)NC(=O)[C@H](CC(C)C)NC(=O)[C@@H](N)Cc2ccccc2)cc1 (H-FLKLLKK-X24),256
19,CC(C)C[C@@H](CN(CC(N)=O)S(=O)(=O)c1cccc(Cl)c1)NC(=O)[C@H](CCCCN)NC(=O)[C@H](CCCCN)NC(=O)[C@H](CC(C)C)NC(=O)[C@H](CC(C)C)NC(=O)[C@H](CCCCN)NC(=O)[C@H](CC(C)C)NC(=O)[C@@H](N)Cc1ccccc1 (H-FLKLLKK-X25),256
20,Cc1ccc(S(=O)(=O)N(CC(N)=O)C[C@H](CC(C)C)NC(=O)[C@H](CCCCN)NC(=O)[C@H](CCCCN)NC(=O)[C@H](CC(C)C)NC(=O)[C@H](CC(C)C)NC(=O)[C@H](CCCCN)NC(=O)[C@H](CC(C)C)NC(=O)[C@@H](N)Cc2ccccc2)cc1 (H-FLKLLKK-X27),256
21,Cc1ccc(S(=O)(=O)N(CC(=O)N[C@@H](CCCCN)C(=O)N[C@@H](CC(C)C)C(=O)N[C@@H](CC(C)C)C(=O)N[C@@H](CCCCN)C(=O)N[C@@H](CCCCN)C(=O)N[C@@H](CC(C)C)C(=O)N[C@@H](CC(C)C)C(N)=O)C[C@@H](N)CC(C)C)cc1 (Tos-[X2]KLLKKLL-NH2),32
22,CC(C)C[C@H](NC(=O)[C@H](CC(C)C)NC(=O)[C@H](CCCCN)NC(=O)[C@H](CCCCN)NC(=O)[C@H](CC(C)C)NC(=O)[C@H](CC(C)C)NC(=O)[C@H](CCCCN)NC(=O)CN(C[C@@H](N)Cc1ccccc1)S(=O)(=O)c1ccc(I)cc1)C(N)=O (X1-[X3]KLLKKLL-NH2),32
23,CC(C)C[C@H](N)CN(CC(=O)N[C@@H](CCCCN)C(=O)N[C@@H](CC(C)C)C(=O)N[C@@H](CC(C)C)C(=O)N[C@@H](CCCCN)C(=O)N[C@@H](CCCCN)C(=O)N[C@@H](CC(C)C)C(=O)N[C@@H](CC(C)C)C(N)=O)S(=O)(=O)c1cccc(Cl)c1 (X4-[X2]KLLKKLL-NH2),256
24,CC(C)C[C@H](NC(=O)[C@H](CC(C)C)NC(=O)[C@H](CCCCN)NC(=O)[C@H](CCCCN)NC(=O)[C@H](CC(C)C)NC(=O)[C@H](CC(C)C)NC(=O)[C@H](CCCCN)NC(=O)CN(C[C@@H](N)Cc1ccccc1)S(=O)(=O)c1cccc(Cl)c1)C(N)=O (X4-[X3]KLLKKLL-NH2),128
25,CC(C)C[C@H](N)CN(CC(=O)N[C@@H](CCCCN)C(=O)N[C@@H](CC(C)C)C(=O)N[C@@H](CC(C)C)C(=O)N[C@@H](CCCCN)C(=O)N[C@@H](CCCCN)C(=O)N[C@@H](CC(C)C)C(=O)N[C@@H](CC(C)C)C(N)=O)S(=O)(=O)c1c(C(C)C)cc(C(C)C)cc1C(C)C (X5-[X2]KLLKKLL-NH2),32
26,CC(C)C[C@H](NC(=O)[C@H](CC(C)C)NC(=O)[C@H](CCCCN)NC(=O)[C@H](CCCCN)NC(=O)[C@H](CC(C)C)NC(=O)[C@H](CC(C)C)NC(=O)[C@H](CCCCN)NC(=O)CN(C[C@@H](N)Cc1ccccc1)S(=O)(=O)c1c(C(C)C)cc(C(C)C)cc1C(C)C)C(N)=O (X5-[X3]KLLKKLL-NH2),16
27,CC(C)C[C@H](N)CN(CC(=O)N[C@@H](CCCCN)C(=O)N[C@@H](CC(C)C)C(=O)N[C@@H](CC(C)C)C(=O)N[C@@H](CCCCN)C(=O)N[C@@H](CCCCN)C(=O)N[C@@H](CC(C)C)C(=O)N[C@@H](CC(C)C)C(N)=O)S(=O)(=O)c1ccc([N+](=O)[O-])cc1 (X10-[X2]KLLKKLL-NH2),256
28,CC(C)C[C@H](NC(=O)[C@H](CC(C)C)NC(=O)[C@H](CCCCN)NC(=O)[C@H](CCCCN)NC(=O)[C@H](CC(C)C)NC(=O)[C@H](CC(C)C)NC(=O)[C@H](CCCCN)NC(=O)CN(C[C@@H](N)Cc1ccccc1)S(=O)(=O)c1ccc([N+](=O)[O-])cc1)C(N)=O (X10-[X3]KLLKKLL-NH2),256
29,CC(C)C[C@H](N)CN(CC(=O)N[C@@H](CCCCN)C(=O)N[C@@H](CC(C)C)C(=O)N[C@@H](CC(C)C)C(=O)N[C@@H](CCCCN)C(=O)N[C@@H](CCCCN)C(=O)N[C@@H](CC(C)C)C(=O)N[C@@H](CC(C)C)C(N)=O)S(=O)(=O)c1ccc(Cl)cc1 (X20-[X2]KLLKKLL-NH2),256
